Key:
[1] = target: T1, CaLIP10 (lipase 10 from Candida albicans; product of lip10-dm) (Candida albicans, UniProt Q9P4E5); assay: clear zone on tributyrin-emulsion YPD plates, secreting P. pastoris transformants; assay type: cell-based; conditions: 1% tributyrin emulsion; X-33 and empty-vector control
T1 construct: mature protein without signal peptide, cloned from genomic DNA; CTG-Ser codons 210 and 378 recoded to TCT, so the product keeps native Ser210 and Ser378 (no amino-acid change); secreted from Pichia pastoris X33 with pGAPZalphaA; about 50 kDa by SDS-PAGE
T1 sequence (Q9P4E5 17-465): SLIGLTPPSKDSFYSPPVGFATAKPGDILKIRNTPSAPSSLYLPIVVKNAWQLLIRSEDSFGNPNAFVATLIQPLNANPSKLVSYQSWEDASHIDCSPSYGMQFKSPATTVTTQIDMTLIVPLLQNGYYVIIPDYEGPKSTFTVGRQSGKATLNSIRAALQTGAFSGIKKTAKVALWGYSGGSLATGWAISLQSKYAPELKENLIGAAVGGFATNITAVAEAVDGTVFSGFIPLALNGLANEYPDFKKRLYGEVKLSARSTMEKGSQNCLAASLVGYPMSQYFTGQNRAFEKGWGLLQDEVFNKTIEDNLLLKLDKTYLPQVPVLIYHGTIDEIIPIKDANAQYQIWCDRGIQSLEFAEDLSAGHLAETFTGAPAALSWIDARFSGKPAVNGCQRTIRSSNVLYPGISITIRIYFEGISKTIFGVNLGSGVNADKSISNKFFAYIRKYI

[2] = target: T1, CaLIP10 (lipase 10 from Candida albicans; product of lip10-dm); assay: spectrophotometric release of p-nitrophenol at […] nm; assay type: biochemical; conditions: 2 mM substrate, 50 mM Tris-HCl pH 8.0, 25 °C

| Structure (SMILES) | clear zone on tributyrin-emulsion YPD plates, secreting P. pastoris transformant [1] | spectrophotometric release of p-nitrophenol at 405 nm [2] |
| --- | --- | --- |
| CCCC(=O)OCC(COC(=O)CCC)OC(=O)CCC [tributyrin] | a clear zone was formed around wild type lip10 and mutated lip10-dm |  |
| CCCCCCCC(=O)Oc1ccc([N+](=O)[O-])cc1 [p-nitrophenol caprylate] |  | The lipase activity was determined spectrophotometrically using p-nitrophenol caprylate as substrate. |

— paper PMC3211034, “Optimal Production and Biochemical Properties of a Lipase from Candida albicans” (International Journal of Molecular Sciences, 2011)
